Target: T1, human A2a receptor (Homo sapiens, UniProt P29274)
T1 construct: purchased Perkin-Elmer RBHA2AM400UA; host or cells: HEK293 cell membranes
Experiment: A2a receptor competition binding assay using Scintillation Proximity technology
Settings: membranes from HEK293 cells expressing human A2a receptor; 0.5 nM tritiated radioligand; SPA beads; 1 h room temperature
How it was run: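 Membranes of HEK293 cells expressing human A2a, pretreated with adenosine deaminase, incubated 1 h at room temperature with 0.5 nM tritiated pyrazolotriazolopyrimidine antagonist (final) and compound (3000 to 0.15 nM) on WGA SPA beads in Ca/Mg-free PBS with 10 mM MgCl2. Ki from EC50 via Cheng-Prusoff.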

T1 sequence (P29274 whole entry): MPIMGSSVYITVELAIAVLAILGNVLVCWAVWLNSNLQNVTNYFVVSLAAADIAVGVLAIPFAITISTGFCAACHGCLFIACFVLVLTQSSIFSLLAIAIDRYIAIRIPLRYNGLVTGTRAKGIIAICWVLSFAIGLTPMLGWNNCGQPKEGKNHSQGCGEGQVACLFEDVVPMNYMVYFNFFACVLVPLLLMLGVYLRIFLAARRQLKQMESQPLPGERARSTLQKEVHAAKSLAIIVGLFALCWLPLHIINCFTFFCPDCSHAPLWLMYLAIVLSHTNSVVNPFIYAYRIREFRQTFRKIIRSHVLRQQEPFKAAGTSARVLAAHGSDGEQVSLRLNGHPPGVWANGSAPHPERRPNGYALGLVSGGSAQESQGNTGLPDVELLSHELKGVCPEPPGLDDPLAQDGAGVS

| SMILES | EC50 [nM] |
| --- | --- |
| COc1cccc2c1nc(N)n1nc(CN3Cc4cccnc4C3)nc21 [Ex-118, 2-((5H-pyrrolo[3,4-b]pyridin-6(7H)-yl)methyl)-7-methoxy-[1,2,4]triazolo[1,5-c]quinazolin-5-amine] | 5.4 |
| COc1cccc2c1nc(N)n1nc(CN3CCCc4ccccc43)nc21 [Ex-119, 2-((3,4-dihydroquinolin-1(2H)-yl)methyl)-7-methoxy-[1,2,4]triazolo[1,5-c]quinazolin-5-amine] | 2.1 |
| COc1cccc2c1nc(N)n1nc(CN3CCOc4ccccc43)nc21 [Ex-120, 2-((2H-benzo[b][1,4]oxazin-4(3H)-yl)methyl)-7-methoxy-[1,2,4]triazolo[1,5-c]quinazolin-5-amine] | 1.5 |
| COc1cccc2c1nc(N)n1nc(CN3CCc4ccccc4C3)nc21 [Ex-121] | 0.8 |
| COc1cccc2c1nc(N)n1nc(CN3CCc4cc(C#N)ccc4C3)nc21 [Ex-122, 2-((5-amino-7-methoxy-[1,2,4]triazolo[1,5-c]quinazolin-2-yl)methyl)-1,2,3,4-tetrahydroisoquinoline-6-carbonitrile] | 6 |
| COc1cccc2c1nc(N)n1nc(CN3CCc4cccnc4C3)nc21 [Ex-123, 2-((5,6-dihydro-1,7-naphthyridin-7(8H)-yl)methyl)-7-methoxy-[1,2,4]triazolo[1,5-c]quinazolin-5-amine] | 5.6 |
| COc1cccc2c1nc(N)n1nc(CN3CCc4ccncc4C3)nc21 [Ex-125, 2-((3,4-dihydro-2,7-naphthyridin-2(1H)-yl)methyl)-7-methoxy-[1,2,4]tri azolo[1,5-c]quinazolin-5-amine] | 27.3 |
| COc1cccc2c1nc(N)n1nc(CN3CCc4cccc(CN5CCN(c6ccccn6)CC5)c4C3)nc21 [Ex-126, 7-methoxy-2-((8-((4-(pyridin-2-yl)piperazin-1-yl)methyl)-3,4-dihydroisoquinolin-2(1H)-yl)methyl)-[1,2,4]triazolo[1,5-c]quinazolin-5-amine] | 31.6 |
| COc1cccc2c1nc(N)n1nc(CN3Cc4ccc(C(F)(F)F)cc4C3)nc21 [Ex-127, 7-methoxy-2-((2,3,4,5-(trifluoromethyl)isoindolin-2-yl)methyl)-[1,2,4]triazolo[1,5-c]quinazolin-5-amine] | 8.5 |
| COc1cccc2c1nc(N)n1nc(CN3CCCCc4ccccc43)nc21 [Ex-128, 7-methoxy-2-((2,3,4,5-tetrahydro-1H-benzo[b]azepin-1-yl)methyl)-[1,2,4]biazolo[1,5-c]quinazolin-5-amine] | 2 |
| COc1cccc2c1nc(N)n1nc(CN3CCc4ncc(C(F)(F)F)cc4C3)nc21 [Ex-129, 7-methoxy-2-((3-(trifluoromethyl)-7,8-dihydro-1,6-naphthyridin-6(5H)-yl)methyl)-[1,2,4]tria.zolo[1,5-c]quinazolin-5-amine] | 40.8 |
| COc1cccc2c1nc(N)n1nc(CN3CCc4cc(F)ccc4C3)nc21 [Ex-130, 2-((6-fluoro-3,4-dihydroisoquinolin-2(1H)-yl)methyl)-7-methoxy-[1,2,4]triazolo[1,5-c]quinazolin-5-amine] | 20.5 |
| COc1cccc2c1nc(N)n1nc(CN3CCc4ccccc4CC3)nc21 [Ex-131, 2-((4,5-dihydro-1H-benzo[d]azepin-3(2H)-yl)methyl)-7-methoxy-[1,2,4]triazolo[1,5-c]quinazolin-5-amine] | 16 |
| COc1cccc2c1nc(N)n1nc(CN3CCCc4ccccc4C3)nc21 [Ex-132, 2-((4,5-dihydro-1H-benzo[c]azepin-2(3H)-yl)methyl)-7-methoxy-[1,2,4]triazolo[1,5-c]quinazolin-5-amine] | 7.9 |
| COc1cccc2c1nc(N)n1nc(CN3CCCc4ncccc43)nc21 [Ex-133, 2-((3,4-dihydro-1,5-naphthyridin-1(2H)-yl)methyl)-7-methoxy-[1,2,4]triazolo[1,5-c]quinazolin-5-amine] | 27.8 |
| COc1cccc2c1nc(N)n1nc(CN3CCCc4cnccc43)nc21 [Ex-134, 2-((3,4-dihydro-1,6-naphthyridin-1(2H)-yl)methyl)-7-methoxy-[1,2,4]triazolo[1,5-c]quinazolin-5-amine] | 6.7 |
| COc1cccc2c1nc(N)n1nc(CN3CCCc4ccncc43)nc21 [Ex-135, 2-((3,4-dihydro-1,7-naphthyridin-1(2H)-yl)methyl)-7-methoxy-[1,2,4]triazolo[1,5-c]quinazolin-5-amine] | 11.8 |
| COc1cccc2c1nc(N)n1nc(CN3CCN(C)Cc4cc(Cl)ccc43)nc21 [Ex-136, 2-((7-chloro-4-methyl-2,3,4,5-tetrahydro-1H-benzo[e][1,4]diazepin-1-yl)methyl)-7-methoxy-[1,2,4]triazolo[1,5-c]quinazolin-5-amine] | 191 |
| COc1cccc2c1nc(N)n1nc(CN3Cc4ccc(Cl)nc4C3)nc21 [Ex-137] | 16.1 |

| SMILES | EC50 [nM] |
| --- | --- |
| COc1cccc2c1nc(N)n1nc(CN3CCn4c(nnc4SC)C3)nc21 [Ex-138] | 146 |
| CCOC(=O)c1nnc2n1CCN(Cc1nc3c4cccc(OC)c4nc(N)n3n1)C2 [Ex-139, ethyl 7-((5-amino-7-methoxy-[1,2,4]triazolo[1,5-c]quinazolin-2-yl)methyl)-5,6,7,8-tetrahydro-[1,2,4]triazolo[4,3-a]pyrazine-3-carboxylate] | 110 |
| COc1cccc2c1nc(N)n1nc(CN3CCn4c(Br)nnc4C3)nc21 [Ex-140, 2-((3-bromo-5,6-dihydro-[1,2,4]triazolo[4,3-a]pyrazin-7(8H)-yl)methyl)-7-methoxy-[1,2,4]triazolo[1,5-c]quinazolin-5-amine] | 104 |
| COc1cccc2c1nc(N)n1nc(CN3CCn4cnnc4C3)nc21 [Ex-141, 2-((5-dihydro-[1,2,4]triazolo[4,3-a]pyrazin-7(8H)-yl)methyl)-7-methoxy-[1,2,4]triazolo[1,5-c]quinazolin-5-amine] | 149 |
| CCc1nnc2n1CCN(Cc1nc3c4cccc(OC)c4nc(N)n3n1)C2 [Ex-142, 2-((3-ethyl-5,6-dihydro-[1,2,4]triazolo[4,3-a]pyrazin-7(8H)-yl)methyl)-7-methoxy-[1,2,4]triazolo[1,5-c]quinazolin-5-amine] | 350 |
| COc1cccc2c1nc(N)n1nc(CN3CCn4c(nnc4C(=O)NC(C)(C)C)C3)nc21 [Ex-143, 7-((5-amino-7-methoxy-[1,2,4]triazolo[1,5-c]quinazolin-2-yl)methyl)-N-tert-butyl-5,6,7,8-tetrahydro-[1,2,4]triazolo[4,3-a]pyrazine-3-carboxamide] | 74.4 |
| COc1cccc2c1nc(N)n1nc(CN3CCn4c(nnc4OC)C3)nc21 [Ex-144, 7-methoxy-2-((3-methoxy-5,6-dihydro[1,2,4]triazolo[4,3-a]pyrazin-7(8H)-yl)methyl)[1,2,4]triazolo[1,5-c]quinazolin-5-amine] | 149 |
| COc1cccc2c1nc(N)n1nc(CN3Cc4nnc(C(F)(F)F)n4C(C)(C)C3)nc21 [Ex-145, 2-((5,5-dimethyl-3-(trifluoromethyl)-5,6-dihydro-[1,2,4]triazolo[4,3-a]pyrazin-7(8H)-yl)methyl)-7-methoxy-[1,2,4]triazolo[1,5-c]quinazolin-5-amine] | 47.8 |
| COc1cccc2c1nc(N)n1nc(CN3CCn4c(C(F)(F)F)nnc4C3(C)C)nc21 [Ex-146, 2-((8,8-dimethyl-3-(trifluoromethyl)-5,6-dihydro-[1,2,4]triazolo[4,3-a]pyrazin-7(8H)-yl)methyl)-7-methoxy-[1,2,4]triazolo[1,5-c]quinazolin-5-amine] | 29.9 |
| COc1cccc2c1nc(N)n1nc(CN3CCc4c(Br)ccnc4C3)nc21 [Ex-148] | 7.2 |
| COc1cccc2c1nc(N)n1nc(CN3Cc4nc(C(C)C)sc4C3)nc21 [Ex-149, 2-((2-isopropyl-4H-pyrrolo[3,4-d]thiazol-5(6H)-yl)methyl)-7-methoxy-[1,2,4]triazolo[1,5-c]quinazolin-5-amine] | 17.5 |
| COc1cccc2c1nc(N)n1nc(CN3CCc4nccnc4C3)nc21 [Ex-150, 2-((7,8-dihydropyrido[4,3-b]pyrazin-6(5H)-yl)methyl)-7-methoxy-[1,2,4]triazolo[1,5-c]quinazolin-5-amine] | 27.6 |
| COc1cccc2c1nc(N)n1nc(CN3CCc4cncnc4C3)nc21 [Ex-151, 2-((5,6-dihydropyrido[3,4-d]pyrimidin-7(8H)-yl)methyl)-7-methoxy-[1,2,4]triazolo[1,5-c]quinazolin-5-amine] | 48.2 |
| COc1cccc2c1nc(N)n1nc(CN3Cc4cnc(C(F)(F)F)nc4C3)nc21 [Ex-152, 7-methoxy-2-((2-(trifluoromethyl)-5H-pyrrolo[3,4-d]pyrimidin-6(7H)-yl)methyl)-[1,2,4]triazolo[1,5-c]quinazolin-5-amine] | 27.8 |
| COc1cccc2c1nc(N)n1nc(CN3CCn4c(nnc4C(F)(F)F)C3)nc21 [Ex-153, 7-methoxy-2-((3-(trifluoromethyl)-5,6-dihydro[1,2,4]triazolo[4,3-a]pyrazin-7(8H)-yl)methyl)-[1,2,4]triazolo[1,5-c]quinazolin-5-amine] | 284 |
| COc1cccc2c1nc(N)n1nc(CN3CCc4cc(Br)cnc43)nc21 [Ex-155, 2-((5-bromo-2,3-dihydro-1H-pyrrolo[2,3-b]pyridin-1-yl)methyl)-7-methoxy-[1,2,4]triazolo[1,5-c]quinazolin-5-amine] | 2.2 |
| COc1cccc2c1nc(N)n1nc(CN3CCCc4ccc(C)nc43)nc21 [Ex-156] | 6 |
| COc1cccc2c1nc(N)n1nc(CN3CCCCc4cccnc43)nc21 [Ex-157, 2-((7,8-dihydro-5H-pyrido[2,3-b]azepin-9(6H)-yl)methyl)-7-methoxy-[1,2,4]triazolo[1,5-c]quinazolin-5-amine] | 1.6 |
| COc1cccc2c1nc(N)n1nc(CN3CCCCc4ccc(Cl)nc43)nc21 [Ex-160, 2-((2-chloro-7,8-dihydro-5H-pyrido[2,3-b]azepin-9(6H)-yl)methyl)-7-methoxy-[1,2,4]triazolo[1,5-c]quinazolin-5-amine] | 1.5 |

Reference: patent publication US10011615B2, “Heterobicyclo-substituted [1,2,4]triazolo[1,5-c]quinazolin-5-amine compounds with A2A anatagonist properties” (Merck Sharp & Dohme Corp., priority 2012, dated 2018)
